Literature values as cited in patent US20100047334A1, “PH SENSITIVE LIPOSOME COMPOSITIONS FOR CONTROLLING SURFACE TOPOGRAPHY AND BINDING REACTIVITY IN FUNCTIONALIZED LIPOSOMES” (priority 2006, published 2010).
Read-outs that look alike come from different tables or passages of the source.

Columns and labels:
[1] = highest reported value; 0.1 ionic strength; dimyristoyl- and dipalmitoyl-phosphatidylserine membranes
streptavidin = streptavidin (Streptomyces avidinii, UniProt P22629)
Sequence of streptavidin (P22629 25-183): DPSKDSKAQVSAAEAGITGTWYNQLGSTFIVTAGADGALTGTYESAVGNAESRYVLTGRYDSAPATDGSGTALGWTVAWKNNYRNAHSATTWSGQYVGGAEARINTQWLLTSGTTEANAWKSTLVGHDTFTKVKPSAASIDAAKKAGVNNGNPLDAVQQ

For phosphatidylserine, the “apparent pKa of phosphatidylserine's carboxyl group” value [1] is listed as 5.5.
For `CCCCCCCCCCCCCCCC(=O)OC[C@H](COP(=O)([O-])OCC[N+](C)(C)C)OC(=O)CCCCCCCCCCCCCCC` [DPPC lipids, 1,2-Dipalmitoyl-sn-Glycero-3-Phosphocholine], the lateral diffusion coefficient (at 37° C. (gel)) is given as 10^−10 cm^2/s and the lateral diffusion coefficient (in the fluid state) is given as 5×10^−8 cm^2/s.
In the case of `O=C(O)CCCC[C@@H]1SC[C@@H]2NC(=O)N[C@@H]21` [biotin], the “Ka of the biotin-streptavidin link” value (streptavidin) is given as 10^13 M^−1.
